Source: PubChem BioAssay AID248 (DTP/NCI, 2004)
Values joined by “and” are separate entries in the source; they are usually repeats but may differ in a detail not shown here. Equal values may be shown once. Toxic doses and inconclusive results are not listed.

Test system: L1210 leukemia ip in BDF1 mice, survival T/C
Assay: NCI In Vivo Anticancer Drug Screen. Data for tumor model L1210 Leukemia (intraperitoneal) in B6D2F1 (BDF1) mice
Conditions: endpoint: mean survival time, higher = longer survival
Summary of the method: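 Survival endpoint. Drug-treated group vs vehicle group, expressed as T divided by C. Tumor passaged by transplantation.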

[1] = dose: 100.0 mg/kg/injection, schedule: Q01DX009 (ip), vehicle: Klucel (hydroxypropylcellulose) (HPC)
[2] = dose: 200.0 mg/kg/injection, schedule: Q01DX009 (ip), vehicle: Klucel (hydroxypropylcellulose) (HPC)
[3] = dose: 400.0 mg/kg/injection, schedule: Q01DX009 (ip), vehicle: Klucel (hydroxypropylcellulose) (HPC)
[4] = dose: 100.0 mg/kg/injection, schedule: Q01DX001 (ip), vehicle: saline
[5] = dose: 200.0 mg/kg/injection, schedule: Q01DX001 (ip), vehicle: saline
[6] = dose: 400.0 mg/kg/injection, schedule: Q01DX001 (ip), vehicle: saline
[7] = dose: 100.0 mg/kg/injection, schedule: Q04DX003 (ip), vehicle: saline with Tween-80
[8] = dose: 200.0 mg/kg/injection, schedule: Q04DX003 (ip), vehicle: saline with Tween-80
[9] = dose: 400.0 mg/kg/injection, schedule: Q04DX003 (ip), vehicle: saline with Tween-80
[10] = dose: 50.0 mg/kg/injection, schedule: Q01DX009 (ip), vehicle: saline
[11] = dose: 100.0 mg/kg/injection, schedule: Q01DX009 (ip), vehicle: saline
[12] = dose: 100.0 mg/kg/injection, schedule: Q04DX003 (ip), vehicle: saline
[13] = dose: 200.0 mg/kg/injection, schedule: Q01DX009 (ip), vehicle: saline
[14] = dose: 200.0 mg/kg/injection, schedule: Q04DX003 (ip), vehicle: saline

COCCOCCN1CCN(CCCN2c3ccccc3Sc3ccc(C(F)(F)F)cc32)CC1
T/C (dose: 4.37 mg/kg/injection, schedule: Q04DX003 (ip), vehicle: saline): 115 % of control
T/C (dose: 6.25 mg/kg/injection, schedule: Q04DX003 (ip), vehicle: saline): 107 % of control
T/C (dose: 8.75 mg/kg/injection, schedule: Q04DX003 (ip), vehicle: saline): 121 % of control
T/C (dose: 12.5 mg/kg/injection, schedule: Q04DX003 (ip), vehicle: saline): 110 % of control
T/C (dose: 17.5 mg/kg/injection, schedule: Q04DX003 (ip), vehicle: saline): 86 % of control
T/C (dose: 50.0 mg/kg/injection, schedule: Q04DX003 (ip), vehicle: saline): 151 % of control

COc1cc(/C=N\N=C\c2ccc(F)cc2)cc(OC)c1OC
T/C [1]: 93 % of control
T/C [2]: 93 % of control
T/C [3]: 88 % of control

N#Cc1c(/N=C/c2cc(Cl)cc(Cl)c2O)sc2c1CCC2
T/C (dose: 100.0 mg/kg/injection, schedule: Q04DX002 (ip), vehicle: saline with Tween-80): 95 % of control
T/C (dose: 200.0 mg/kg/injection, schedule: Q04DX002 (ip), vehicle: saline with Tween-80): 113 % of control
T/C (dose: 400.0 mg/kg/injection, schedule: Q04DX002 (ip), vehicle: saline with Tween-80): 91 % of control

CCCCc1ccc(C2=CC(=O)C(c3ccc(CCCC)cc3)=CC2=O)cc1
T/C [4]: 98 % of control
T/C [5]: 95 % of control
T/C [6]: 97 % of control

CC1=C2C(=C(CBr)OS1(=O)=O)C(=O)c1ccccc12
T/C (dose: 100.0 mg/kg/injection, schedule: Q01DX009 (ip), vehicle: saline with Tween-80): 92 % of control
T/C [7]: 96 % of control
T/C (dose: 200.0 mg/kg/injection, schedule: Q01DX009 (ip), vehicle: saline with Tween-80): 92 % of control
T/C [8]: 103 % of control
T/C (dose: 400.0 mg/kg/injection, schedule: Q01DX009 (ip), vehicle: saline with Tween-80): 95 % of control
T/C [9]: 94 % of control

COc1ccc(CCNC(=S)NCCc2ccc(OC)c(OC)c2)cc1OC
T/C (dose: 25.0 mg/kg/injection, schedule: Q01DX009 (ip), vehicle: saline): 100 % of control
T/C [10]: 92 % of control
T/C [11]: 98 % of control
T/C [12]: 86 % of control
T/C [13]: 92 % of control
T/C [14]: 86 % of control

C=C(C)COc1c(C)cc(C)cc1C=Nc1ccccc1
T/C [7]: 109 % of control
T/C [8]: 106 % of control
T/C [9]: 105 % of control

COc1cc(-c2ccc(Nc3ccccc3C(=O)O)c(OC)c2)ccc1Nc1ccccc1C(=O)O
T/C (dose: 6.0 mg/kg/injection, schedule: Q01DX006 (iv), vehicle: carboxymethylcellulose (CMC)): 111 % of control
T/C (dose: 12.0 mg/kg/injection, schedule: Q01DX006 (iv), vehicle: carboxymethylcellulose (CMC)): 106 % of control
T/C (dose: 13.0 mg/kg/injection, schedule: Q01DX Z (ip), vehicle: saline): 122 % of control
T/C (dose: 20.0 mg/kg/injection, schedule: Q01DX Z (ip), vehicle: saline): 114 % of control
T/C (dose: 25.0 mg/kg/injection, schedule: Q01DX006 (iv), vehicle: carboxymethylcellulose (CMC)): 107 % of control
T/C (dose: 25.0 mg/kg/injection, schedule: Q01DX Z (ip), vehicle: carboxymethylcellulose (CMC)): 103 % of control
T/C (dose: 29.0 mg/kg/injection, schedule: Q01DX Z (ip), vehicle: saline): 116 % of control
T/C (dose: 37.5 mg/kg/injection, schedule: Q01DX006 (iv), vehicle: carboxymethylcellulose (CMC)): 108 % of control
T/C (dose: 44.0 mg/kg/injection, schedule: Q01DX Z (ip), vehicle: carboxymethylcellulose (CMC)): 104 % of control and 112 % of control
T/C (dose: 44.0 mg/kg/injection, schedule: Q01DX Z (ip), vehicle: methylcellulose (MC)): 100 % of control
T/C (dose: 44.0 mg/kg/injection, schedule: Q01DX Z (ip), vehicle: saline): 117 % of control and 122 % of control
T/C (dose: 45.0 mg/kg/injection, schedule: Q01DX Z (ip), vehicle: carboxymethylcellulose (CMC)): 104 % of control
T/C (dose: 50.0 mg/kg/injection, schedule: Q01DX006 (iv), vehicle: carboxymethylcellulose (CMC)): 106 % of control
T/C (dose: 50.0 mg/kg/injection, schedule: Q01DX015 (ip), vehicle: saline): 98 % of control
T/C (dose: 50.0 mg/kg/injection, schedule: Q01DX Z (ip), vehicle: carboxymethylcellulose (CMC)): 97 % of control and 101 % of control
T/C (dose: 64.0 mg/kg/injection, schedule: Q01DX Z (ip), vehicle: carboxymethylcellulose (CMC)): 102 % of control
T/C (dose: 66.0 mg/kg/injection, schedule: Q01DX Z (ip), vehicle: carboxymethylcellulose (CMC)): 110 % of control
T/C (dose: 66.0 mg/kg/injection, schedule: Q01DX Z (ip), vehicle: methylcellulose (MC)): 105 % of control
T/C (dose: 66.0 mg/kg/injection, schedule: Q01DX Z (ip), vehicle: saline): 109 % of control and 114 % of control
T/C (dose: 98.0 mg/kg/injection, schedule: Q01DX Z (ip), vehicle: methylcellulose (MC)): 98 % of control
T/C (dose: 98.0 mg/kg/injection, schedule: Q01DX Z (ip), vehicle: saline): 97 % of control
T/C (dose: 99.0 mg/kg/injection, schedule: Q01DX Z (ip), vehicle: carboxymethylcellulose (CMC)): 100 % of control
T/C (dose: 100.0 mg/kg/injection, schedule: Q01DX015 (ip), vehicle: saline): 96 % of control
T/C (dose: 100.0 mg/kg/injection, schedule: Q01DX Z (ip), vehicle: saline): 119 % of control
T/C (dose: 147.0 mg/kg/injection, schedule: Q01DX Z (ip), vehicle: methylcellulose (MC)): 110 % of control
T/C (dose: 147.0 mg/kg/injection, schedule: Q01DX Z (ip), vehicle: saline): 100 % of control
T/C (dose: 150.0 mg/kg/injection, schedule: Q01DX Z (ip), vehicle: carboxymethylcellulose (CMC)): 95 % of control
T/C (dose: 200.0 mg/kg/injection, schedule: Q01DX015 (ip), vehicle: saline): 101 % of control
T/C (dose: 200.0 mg/kg/injection, schedule: Q01DX Z (ip), vehicle: carboxymethylcellulose (CMC)): 103 % of control and 106 % of control
T/C (dose: 200.0 mg/kg/injection, schedule: Q01DX Z (oral), vehicle: carboxymethylcellulose (CMC)): 103 % of control
T/C (dose: 220.0 mg/kg/injection, schedule: Q01DX Z (ip), vehicle: methylcellulose (MC)): 98 % of control
T/C (dose: 220.0 mg/kg/injection, schedule: Q01DX Z (ip), vehicle: saline): 108 % of control
T/C (dose: 334.0 mg/kg/injection, schedule: Q01DX Z (ip), vehicle: saline): 120 % of control
T/C (dose: 400.0 mg/kg/injection, schedule: Q01DX015 (ip), vehicle: saline): 96 % of control
T/C (dose: 400.0 mg/kg/injection, schedule: Q01DX Z (oral), vehicle: carboxymethylcellulose (CMC)): 103 % of control
T/C (dose: 800.0 mg/kg/injection, schedule: Q01DX Z (oral), vehicle: carboxymethylcellulose (CMC)): 95 % of control
T/C (dose: 1600.0 mg/kg/injection, schedule: Q01DX Z (oral), vehicle: carboxymethylcellulose (CMC)): 111 % of control

O=S(=O)(O)C(I)(I)S(=O)(=O)O
T/C [12]: 99 % of control
T/C [14]: 100 % of control
T/C (dose: 400.0 mg/kg/injection, schedule: Q04DX003 (ip), vehicle: saline): 95 % of control

CCOC(=O)NP(=O)(Nc1ccc(C)cc1)Nc1ccc(C)cc1
T/C (dose: 50.0 mg/kg/injection, schedule: Q01DX001 (ip), vehicle: carboxymethylcellulose (CMC)): 104 % of control
T/C (dose: 100.0 mg/kg/injection, schedule: Q01DX001 (ip), vehicle: carboxymethylcellulose (CMC)): 98 % of control
T/C (dose: 200.0 mg/kg/injection, schedule: Q01DX001 (ip), vehicle: carboxymethylcellulose (CMC)): 95 % of control
T/C (dose: 400.0 mg/kg/injection, schedule: Q01DX001 (ip), vehicle: carboxymethylcellulose (CMC)): 98 % of control

CSc1ccc(NC(=O)Nc2ccccc2)cc1
T/C [1]: 116 % of control
T/C (dose: 100.0 mg/kg/injection, schedule: Q04DX003 (ip), vehicle: Klucel (hydroxypropylcellulose) (HPC)): 95 % of control
T/C [2]: 106 % of control
T/C (dose: 200.0 mg/kg/injection, schedule: Q04DX003 (ip), vehicle: Klucel (hydroxypropylcellulose) (HPC)): 93 % of control
T/C [3]: 106 % of control
T/C (dose: 400.0 mg/kg/injection, schedule: Q04DX003 (ip), vehicle: Klucel (hydroxypropylcellulose) (HPC)): 95 % of control

O=C(O)c1ccc(C(=O)O)c(O)c1O
T/C [10]: 120 % of control
T/C [4]: 100 % of control
T/C [11]: 105 % of control
T/C [12]: 89 % of control
T/C [5]: 92 % of control
T/C [13]: 116 % of control
T/C [14]: 96 % of control
T/C [6]: 94 % of control
